# Data reported in the supplement of paper PMC11208160.
# Test: recombinant barcode read abundance after kanamycin selection (control-corrected) (log10(CPM+1)); higher = more efficient recombination; sequences stand for … in AGTGCAGAGAAAATCGGCCAGTTTTCTCTGCCTGCAGTCCGCATGCCGT…AGATTTATGCAGCGGACTGCCTTTCTCCCAAAGTGATAAACCGGACAGTATCATGGACCGGTTTTCCCGGTAATCCGTATTTGCAAGGTTGGTTTCACT; site = the 11-nt target
# Method in brief: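 Recombination efficiency was calculated from barcode counts at recombinant junctions, normalized to counts per million, averaged and corrected by the control. Each value is given as log10(CPM+1). The constructs were Gibson-cloned oligos (promoter, target, barcode, J23119-driven first 104 bridge RNA bases) in a vector with the remaining 73 bp and a T7-inducible recombinase, co-electroporated into E. coli with a donor plasmid and plated in duplicate on chloramphenicol/ampicillin LB agar (control) or chloramphenicol/ampicillin/kanamycin with 0.1 mM IPTG.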
# 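Further: IS621 recombinase and bridge RNA in Escherichia coli cells.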
sequence,measurement,value
TATTTGCCTTGGGTTCTAACCTGTTGCTG (site TATTTGCCTCA),recombinant barcode read abundance (log10),0.0916
TCAAAGCCTTGGGTTCTAACCTGTTGCTG (site TCAAAGCCTCA),recombinant barcode read abundance (log10),0.252
TCAAAGCCTTGGGTTCTAACCTGTTGCTG (site TCACAGCCTCA),recombinant barcode read abundance (log10),0.204
TCAAAGCCTTGGGTTCTAACCTGTTGCTG (site TCAGAGCCTCA),recombinant barcode read abundance (log10),0.372
TCAAAGCCTTGGGTTCTAACCTGTTGCTG (site TCATAGCCTCA),recombinant barcode read abundance (log10),0.217
TCAAGACCTTGGGTTCTAACCTGTTGCCT (site TCAAGACCTAG),recombinant barcode read abundance (log10),0.617
TCAAGACCTTGGGTTCTAACCTGTTGCCT (site TCAAGACCTCG),recombinant barcode read abundance (log10),0.0935
TCACAGCCTTGGGTTCTAACCTGTTGCTG (site TCAAAGCCTCA),recombinant barcode read abundance (log10),0.106
TCACAGCCTTGGGTTCTAACCTGTTGCTG (site TCACAGCCTCA),recombinant barcode read abundance (log10),0.476
TCACAGCCTTGGGTTCTAACCTGTTGCTG (site TCAGAGCCTCA),recombinant barcode read abundance (log10),0.176
TCACAGCCTTGGGTTCTAACCTGTTGCTG (site TCATAGCCTCA),recombinant barcode read abundance (log10),0.178
TCACAGTCTTGGGTTCTAACCTGTTGCCT (site TAACACTCTAG),recombinant barcode read abundance (log10),0.0324
TCACAGTCTTGGGTTCTAACCTGTTGCCT (site TCACAGTCTAG),recombinant barcode read abundance (log10),1.59
TCACATGCTTGGGTTCTAACCTGTTGCCT (site TCACATGCTAG),recombinant barcode read abundance (log10),1.28
TCACATGCTTGGGTTCTAACCTGTTGCCT (site TCACCTGCTAG),recombinant barcode read abundance (log10),0.0279
TCACATGCTTGGGTTCTAACCTGTTGCCT (site TCACGTGCTAG),recombinant barcode read abundance (log10),0.179
TCACATGCTTGGGTTCTAACCTGTTGCCT (site TCACTTGCTAG),recombinant barcode read abundance (log10),0.119
TCACATTCTTGGGTTCTAACCTGTTGCCT (site TCAAATTCTAG),recombinant barcode read abundance (log10),0.228
TCACATTCTTGGGTTCTAACCTGTTGCCT (site TCACATTCTAG),recombinant barcode read abundance (log10),0.31
TCACATTCTTGGGTTCTAACCTGTTGCCT (site TCAGATTCTAG),recombinant barcode read abundance (log10),0.183
TCACATTCTTGGGTTCTAACCTGTTGCCT (site TCATATTCTAG),recombinant barcode read abundance (log10),0.155
TCAGAGCCTTGGGTTCTAACCTGTTGCTG (site TCAAAGCCTCA),recombinant barcode read abundance (log10),0.025
TCAGAGCCTTGGGTTCTAACCTGTTGCTG (site TCACAGCCTCA),recombinant barcode read abundance (log10),0.0728
TCAGAGCCTTGGGTTCTAACCTGTTGCTG (site TCAGAGCCTCA),recombinant barcode read abundance (log10),1.28
TCAGAGCCTTGGGTTCTAACCTGTTGCTG (site TCATAGCCTCA),recombinant barcode read abundance (log10),0.0059
TCAGGAGCTTGGGTTCTAACCTGTTGCAG (site TCAGGAGCTCC),recombinant barcode read abundance (log10),0.0921
TCAGGAGCTTGGGTTCTAACCTGTTGCAG (site TCAGGAGCTCT),recombinant barcode read abundance (log10),1.57
TCATTGACTTGGGTTCTAACCTGTTGCCT (site TCATTGACTAG),recombinant barcode read abundance (log10),0.622
TCATTGACTTGGGTTCTAACCTGTTGCCT (site TTATTCACTAG),recombinant barcode read abundance (log10),0.0739
TCCAAATCTTGGGTTCTAACCTGTTGCCT (site AGACTGACTCC),recombinant barcode read abundance (log10),0.109
TCCAAATCTTGGGTTCTAACCTGTTGCCT (site TCCAAATCTAG),recombinant barcode read abundance (log10),0.317
TCCAACCCTTGGGTTCTAACCTGTTGCAG (site TCCAAACCTCT),recombinant barcode read abundance (log10),0.066
TCCAACCCTTGGGTTCTAACCTGTTGCAG (site TCCAACCCTCT),recombinant barcode read abundance (log10),1.69
TCCAACCCTTGGGTTCTAACCTGTTGCAG (site TCCAAGCCTCT),recombinant barcode read abundance (log10),0.0523
TCCAACCCTTGGGTTCTAACCTGTTGCAG (site TCCAATCCTCT),recombinant barcode read abundance (log10),0.0309
TCCAACCCTTGGGTTCTAACCTGTTGCTG (site GCCAAGCCTCA),recombinant barcode read abundance (log10),0.0799
